# According to patent US6875760B2 (Novo Nordisk A/S, priority 1999, dated 2005):
# Target: T1, human glucagon receptor (Homo sapiens, UniProt P47871)
# T1 construct: expressed in transfected cells; host or cells: BHK (baby hamster kidney) cells
# Assay: Glucagon Binding Assay (III)
# Settings: BHK cell membranes, WGA SPA beads, 125I-glucagon; read-out: Glu Bd Assay (III) IC50
# Procedure: BHK (baby hamster kidney cell line) cells were transfected with the human glucagon receptor and a membrane preparation of the cells was prepared.
# All steps in the membrane preparation were kept on ice or performed at 4° C. BHK cells were harvested and centrifuged. […] The pellet was resuspended in homogenisation buffer, homogenised 2×10 sec (Polytron) and additional homogenisation buffer was added. […] (Polytron).
# The glucagon binding assay was carried out in opti plates (Polystyrene Microplates, Packard). […] Finally 50 μL WGA beads containing 1 mg beads were transferred to the well. The assay was incubated for 4 hours on a shaker and then settled for 8-48 hours. The opti plates were counted in a Topcounter. Non-specific binding was determined with 500 nM of glucagon.
# T1 sequence (P47871 26-477): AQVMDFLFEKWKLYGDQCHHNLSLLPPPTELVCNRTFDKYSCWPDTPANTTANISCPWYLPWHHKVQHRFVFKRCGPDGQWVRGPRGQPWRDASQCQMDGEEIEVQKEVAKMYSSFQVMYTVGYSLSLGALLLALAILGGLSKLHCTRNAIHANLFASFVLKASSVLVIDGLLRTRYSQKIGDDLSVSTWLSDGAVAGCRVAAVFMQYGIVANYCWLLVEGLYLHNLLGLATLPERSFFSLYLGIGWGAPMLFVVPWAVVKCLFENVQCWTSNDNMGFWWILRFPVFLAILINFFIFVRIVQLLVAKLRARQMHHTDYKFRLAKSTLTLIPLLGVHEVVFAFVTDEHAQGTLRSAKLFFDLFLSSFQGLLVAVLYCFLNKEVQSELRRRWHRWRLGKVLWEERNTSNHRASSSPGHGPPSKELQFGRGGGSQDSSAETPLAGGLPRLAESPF
row,SMILES,IC50
1,"COc1ccc(NC(=O)N(Cc2ccc(C(=O)Nc3nn[nH]n3)cc2)c2ccc(C3CCCCC3)cc2)cc1S(C)(=O)=O [Example 340, 4-[1-(4-Cyclohexylphenyl)-3-(3-methylsulfonyl-4-methoxyphenyl)ureidomethyl]-N-(2H-tetrazol-5-yl)benzamide]",179 nM
2,"CC(C)(C)C1CCC(N(Cc2ccc(C(=O)Nc3nn[nH]n3)cc2)C(=O)c2cc3cc(OC(F)(F)F)ccc3[nH]2)CC1 (stereo not drawn) [Example 557, 5-Trifluoromethoxy-1H-indole-2-carboxylic acid (4-tert-butylcyclohexyl)-[4-(2H-tetrazol-5-ylcarbamoyl)benzyl]amide]",266 nM
3,"CC(C)(C)C1CCC(N(Cc2ccc(C(=O)Nc3nn[nH]n3)cc2)C(=O)c2cc(-c3ccc(Cl)cc3)cs2)CC1 (stereo not drawn) [Example 564, 4-(4-Chlorophenyl)thiophene-2-carboxylic acid (4-tert-butylcyclohexyl)-[4-(2H-tetrazol-5-ylcarbamoyl)benzyl]amide]",98 nM
4,"CNS(=O)(=O)c1ccc(Cl)c(NC(=O)N(Cc2ccc(C(=O)Nc3nn[nH]n3)cc2)c2ccc(C3CCCCC3)cc2)c1 [Example 467, 4-[3-(2-Chloro-5-methylsulfamoylphenyl)-1-(4-cyclohexylphenyl)ureidomethyl]-N-(2H-tetrazol-5-yl)benzamide]",772 nM
5,"O=C(Nc1nn[nH]n1)c1ccc(CN(C(=O)Nc2ccc(F)c(C(F)(F)F)c2)c2ccc(C3=CCCCC3)cc2)cc1 [Example 328, 4-[1-(4-Cyclohex-1-enylphenyl)-3-(4-fluoro-3-trifluoromethylphenyl)ureidomethyl]-N-(2H-tetrazol-5-yl)benzamide]",14 nM
6,"CC(C)(C)c1ccc(N(Cc2ccc(C(=O)Nc3nn[nH]n3)cc2)C(=O)Nc2cccc(S(C)(=O)=O)c2)cc1 [Example 449, 4-[1-(4-tert-Butylphenyl)-3-(3-methylsulfonylphenyl)ureidomethyl]-N-(2H-tetrazol-5-yl)benzamide]",195 nM
7,"CC(C)(C)c1ccc(N(Cc2ccc(C(=O)Nc3nn[nH]n3)cc2)C(=O)Nc2ccc(OC(F)(F)F)c(S(C)(=O)=O)c2)cc1 [Example 312, 4-[1-(4-tert-Butylphenyl)-3-(3-methylsulfonyl-4-trifluoromethoxyphenyl)ureidomethyl]-N-(2H-tetrazol-5-yl)benzamide]",46 nM
8,"CC(C)(C)[C@H]1CC[C@H](N(Cc2ccc(C(=O)NCCC(=O)O)cc2)NC(=O)c2ccc(OC(F)(F)F)cc2)CC1 [Example 429, 3-{4-[N-(trans-4-tert-Butylcyclohexyl)-N′-(4-trifluoromethoxybenzoyl)hydrazinomethyl]benzoylamino}propionic acid]",86 nM
9,"O=C(Nc1nn[nH]n1)c1ccc(CN(C(=O)Nc2ccc(S(=O)(=O)C(F)(F)F)cc2)c2ccc(C3CCCCC3)cc2)cc1 [Example 455, 4-[1-(4-Cyclohexylphenyl)-3-(4-trifluoromethylsulfonylphenyl)ureidomethyl]-N-(2H-tetrazol-5-yl)benzamide]",53 nM
10,"CCCCC(CC)CN(Cc1ccc(C(=O)NCCC(=O)O)cc1)C(=O)Nc1ccc(CC)cc1 (stereo not drawn) [Example 42, 3-{4-[1-(2-Ethylhexyl)-3-(4-ethylphenyl)ureidomethyl]benzoylamino}propionic acid]",117 nM
11,"CC(C)(C)c1ccc(N(Cc2ccc(C(=O)Nc3nn[nH]n3)cc2)C(=O)Nc2cccc(C(F)(F)F)c2)cc1 [Example 294, 4-[1-(4-tert-Butylphenyl)-3-(3-trifluoromethylphenyl)ureidomethyl]-N-(2H-tetrazol-5-yl)benzamide]",50 nM
12,"CC(C)(C)C1CCC(N(Cc2ccc(C(=O)Nc3nn[nH]n3)cc2)C(=O)Cc2cccc(OC(F)(F)F)c2)CC1 (stereo not drawn) [Example 543, 4-({(4-tert-Butylcyclohexyl)-[2-(3-trifluoromethoxyphenyl)acetyl]amino}methyl)-N-(2H-tetrazol-5-yl)benzamide]",201 nM
